Data published in ChEMBL document CHEMBL1201862, “PubChem BioAssay data set” (2004).
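Cultured in 96-well plates, cells were exposed to test compound for 48 hours across five concentrations. Here, GI50 denotes the concentration required for 50% inhibition of growth.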 Activity calls are given as the source filed them. No stated cut-off is given here; in the data, active = GI50 up to about 1.1 µM and inactive = higher.

Experiments:
Assay in all cases: DTP human tumour cell line panel, 48 h
SW-620 = system: SW-620
HOP-62 = system: HOP-62
MDA-N = system: MDA-N
SR = system: SR
SF-539 = system: SF-539
HT-29 = system: HT-29
UACC-257 = system: UACC-257
HCT-15 = system: HCT-15
HCT-116 = system: HCT-116
SK-MEL-28 = system: SK-MEL-28
COLO 205 = system: COLO 205
MDA-MB-231 = system: MDA-MB-231
PC-3 = system: PC-3
786-0 = system: 786-0
NCI-H226 = system: NCI-H226
MOLT-4 = system: MOLT-4
NCI-H460 = system: NCI-H460
RXF 393 = system: RXF 393
TK-10 = system: TK-10
KM12 = system: KM12
SNB-75 = system: SNB-75
Hs-578T = system: Hs-578T
U-251 = system: U-251
RPMI-8226 = system: RPMI-8226
ACHN = system: ACHN
Malme-3M = system: Malme-3M
NCI-H23 = system: NCI-H23
MCF7 = system: MCF7
LOX IMVI = system: LOX IMVI
OVCAR-5 = system: OVCAR-5
CAKI-1 = system: CAKI-1
M14 = system: M14
EKVX = system: EKVX
IGROV-1 = system: IGROV-1
SF-268 = system: SF-268
SK-OV-3 = system: SK-OV-3
SK-MEL-5 = system: SK-MEL-5
K562 = system: K562
UACC-62 = system: UACC-62
BT-549 = system: BT-549
NCI/ADR-RES = system: NCI/ADR-RES
UO-31 = system: UO-31
OVCAR-8 = system: OVCAR-8
A498 = system: A498
OVCAR-3 = system: OVCAR-3
MDA-MB-435 = system: MDA-MB-435
CCRF-CEM = system: CCRF-CEM
SF-295 = system: SF-295
DU-145 = system: DU-145
SNB-19 = system: SNB-19
HL-60 = system: HL-60
SK-MEL-2 = system: SK-MEL-2
SN12C = system: SN12C
HCC 2998 = system: HCC 2998
HOP-92 = system: HOP-92
NCI-H522 = system: NCI-H522

## CCCCCCCCCCCCCCCCC(C(=O)O)C(O)(CC(=O)O)C(=O)O (stereo not drawn)
SW-620
  GI50: 20 µM (inactive)
HOP-62
  GI50: 17.2 µM (inactive)
MDA-N
  GI50: 47 µM (inactive)
SR
  GI50: 24.7 µM (inactive)
SF-539
  GI50: 28.1 µM (inactive)
HT-29
  GI50: 21.2 µM (inactive)
UACC-257
  GI50: 34.1 µM (inactive)
HCT-15
  GI50: 21.5 µM
HCT-116
  GI50: 19.1 µM (inactive)
SK-MEL-28
  GI50: 23.9 µM (inactive)
COLO 205
  GI50: 18.7 µM (inactive)
MDA-MB-231
  GI50: 27.5 µM (inactive)
PC-3
  GI50: 19.5 µM (inactive)
786-0
  GI50: 35.2 µM (inactive)
NCI-H226
  GI50: 22.6 µM (inactive)
MOLT-4
  GI50: 25.5 µM (inactive)
NCI-H460
  GI50: 17.5 µM (inactive)
RXF 393
  GI50: 22.1 µM (inactive)
TK-10
  GI50: 34.8 µM (inactive)
KM12
  GI50: 21.2 µM (inactive)
SNB-75
  GI50: 20 µM (inactive)
Hs-578T
  GI50: 24.1 µM (inactive)
U-251
  GI50: 16.7 µM (inactive)
RPMI-8226
  GI50: 26.7 µM (inactive)
ACHN
  GI50: 40.6 µM (inactive)
Malme-3M
  GI50: 58.6 µM (inactive)
NCI-H23
  GI50: 29 µM (inactive)
MCF7
  GI50: 34.9 µM (inactive)
LOX IMVI
  GI50: 26.5 µM (inactive)
OVCAR-5
  GI50: 17.9 µM (inactive)
CAKI-1
  GI50: 21.4 µM (inactive)
M14
  GI50: 19.7 µM (inactive)
EKVX
  GI50: 20.2 µM (inactive)
IGROV-1
  GI50: 22.1 µM (inactive)
SF-268
  GI50: 28.6 µM (inactive)
SK-OV-3
  GI50: 17.7 µM (inactive)
SK-MEL-5
  GI50: 39.1 µM (inactive)
K562
  GI50: 35.2 µM (inactive)
UACC-62
  GI50: 18.2 µM (inactive)
BT-549
  GI50: 20.3 µM (inactive)
NCI/ADR-RES
  GI50: 57 µM (inactive)
UO-31
  GI50: 20.3 µM (inactive)
OVCAR-8
  GI50: 39.1 µM (inactive)
A498
  GI50: 21 µM (inactive)
OVCAR-3
  GI50: 18.5 µM (inactive)
MDA-MB-435
  GI50: 34.8 µM (inactive)
CCRF-CEM
  GI50: 27.1 µM (inactive)
SF-295
  GI50: 17.7 µM (inactive)
DU-145
  GI50: 35.6 µM (inactive)
SNB-19
  GI50: 23.9 µM (inactive)
HL-60
  GI50: 14.8 µM (inactive)
SK-MEL-2
  GI50: 18.9 µM (inactive)
SN12C
  GI50: 21.7 µM (inactive)

## Nc1c2c(nc3ccccc13)-c1ccccc1CC2
SW-620
  GI50: 3.15 µM (inactive)
MDA-N
  GI50: 4.19 µM (inactive)
SR
  GI50: 2.33 µM (inactive)
SF-539
  GI50: 3.24 µM (inactive)
UACC-257
  GI50: 2.82 µM (inactive)
HCT-15
  GI50: 3.96 µM
HCT-116
  GI50: 3.76 µM (inactive)
SK-MEL-28
  GI50: 10.4 µM (inactive)
COLO 205
  GI50: 3.76 µM (inactive)
MDA-MB-231
  GI50: 3.88 µM (inactive)
PC-3
  GI50: 3.59 µM (inactive)
HCC 2998
  GI50: 1.43 µM (inactive)
786-0
  GI50: 3.52 µM (inactive)
NCI-H226
  GI50: 12.1 µM (inactive)
MOLT-4
  GI50: 2.38 µM (inactive)
NCI-H460
  GI50: 2.12 µM (inactive)
TK-10
  GI50: 3.96 µM (inactive)
Hs-578T
  GI50: 16.4 µM (inactive)
U-251
  GI50: 4.17 µM (inactive)
RPMI-8226
  GI50: 4.09 µM (inactive)
ACHN
  GI50: 3.56 µM (inactive)
Malme-3M
  GI50: 8.49 µM (inactive)
NCI-H23
  GI50: 10.6 µM (inactive)
MCF7
  GI50: 1.85 µM (inactive)
LOX IMVI
  GI50: 4.34 µM (inactive)
IGROV-1
  GI50: 3.82 µM (inactive)
SF-268
  GI50: 7.82 µM (inactive)
SK-MEL-5
  GI50: 4.04 µM (inactive)
HOP-92
  GI50: 8.09 µM (inactive)
K562
  GI50: 3.56 µM (inactive)
NCI-H522
  GI50: 8.67 µM (inactive)
UACC-62
  GI50: 9.68 µM (inactive)
BT-549
  GI50: 13.2 µM (inactive)
NCI/ADR-RES
  GI50: 5.32 µM (inactive)
OVCAR-8
  GI50: 4.37 µM (inactive)
A498
  GI50: 3.16 µM (inactive)
CCRF-CEM
  GI50: 3.4 µM (inactive)
HL-60
  GI50: 0.942 µM (active)
SK-MEL-2
  GI50: 11 µM (inactive)
SN12C
  GI50: 4.06 µM (inactive)
